Results reported in patent US9403801B2 (Calitor Sciences, LLC, priority 2014, dated 2016).

Key:
JAK1 (h) = JAK1 (h) (Homo sapiens (Human), UniProt P23458); assay: JAK1 kinase assay (33P-ATP filter binding, Millipore); type: biochemical
How it was run: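 Radiometric assay of γ-33P-ATP incorporation into plate-immobilised MBP; kinase buffer pH 7.6 with 10 mM MgCl2, 10 μM unlabelled ATP typical, enzyme 10 or 20 nM final, 1% DMSO. Reactions ran 1 h at room temperature before scintillation counting. IC50 from 10-point half-log dilution curve, duplicates.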

[1] = Compound stability in rat liver microsomes; type: in vitro ADME
How it was run: (§1)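 Each compound is tested in duplicate at 5 μM with 0.5 mg/mL microsomal protein plus 1.0 mM NADPH at 37° C, pH 7.4. Depletion over 60 min is followed by LC/MS/MS relative to time zero. CLint is derived by extrapolation.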

JAK2 (h) = JAK2 (h) (Homo sapiens (Human), UniProt O60674); assay: JAK2 kinase assay (33P-ATP filter binding, Millipore); type: biochemical
JAK2 (h), sequence (O60674 whole entry): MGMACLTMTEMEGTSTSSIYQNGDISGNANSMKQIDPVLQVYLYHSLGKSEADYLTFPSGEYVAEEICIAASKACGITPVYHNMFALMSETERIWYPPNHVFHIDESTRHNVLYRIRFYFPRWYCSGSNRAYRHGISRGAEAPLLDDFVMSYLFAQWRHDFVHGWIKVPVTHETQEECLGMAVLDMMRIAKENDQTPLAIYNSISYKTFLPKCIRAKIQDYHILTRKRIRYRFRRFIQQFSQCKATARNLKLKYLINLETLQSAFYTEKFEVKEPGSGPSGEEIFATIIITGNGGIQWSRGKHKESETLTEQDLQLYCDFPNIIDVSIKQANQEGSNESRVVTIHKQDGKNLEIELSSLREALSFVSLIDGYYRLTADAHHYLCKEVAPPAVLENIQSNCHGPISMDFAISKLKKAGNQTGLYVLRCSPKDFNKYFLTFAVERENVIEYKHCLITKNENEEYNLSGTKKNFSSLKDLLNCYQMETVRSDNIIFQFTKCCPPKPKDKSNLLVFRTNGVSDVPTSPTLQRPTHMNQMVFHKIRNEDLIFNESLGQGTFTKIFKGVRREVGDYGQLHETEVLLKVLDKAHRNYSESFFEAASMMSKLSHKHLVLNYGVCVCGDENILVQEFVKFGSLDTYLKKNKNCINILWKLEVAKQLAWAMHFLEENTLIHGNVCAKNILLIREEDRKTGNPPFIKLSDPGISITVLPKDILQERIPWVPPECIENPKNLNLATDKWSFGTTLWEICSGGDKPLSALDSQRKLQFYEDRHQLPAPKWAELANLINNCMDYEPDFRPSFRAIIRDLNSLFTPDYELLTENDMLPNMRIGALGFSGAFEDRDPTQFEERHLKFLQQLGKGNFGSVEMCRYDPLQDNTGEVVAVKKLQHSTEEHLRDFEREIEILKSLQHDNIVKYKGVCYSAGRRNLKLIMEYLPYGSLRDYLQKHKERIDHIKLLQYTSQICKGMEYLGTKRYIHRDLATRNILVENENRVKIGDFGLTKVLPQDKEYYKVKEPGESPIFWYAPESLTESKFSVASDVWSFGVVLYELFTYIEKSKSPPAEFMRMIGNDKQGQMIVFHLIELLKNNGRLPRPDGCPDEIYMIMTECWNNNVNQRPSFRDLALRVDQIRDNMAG
Description: Kinase assays can be performed by measurement of incorporation of γ-^33P ATP into immobilized myelin basic protein (MBP). High binding white 384 well plates (Greiner) are coated with MBP (Sigma #M−1891) by incubation of 60 μL/well of 20 μg/mL MBP in Tris-buffered saline (TBS; 50 mM Tris pH 8.0, 138 mM NaCl, 2.7 mM KCl) for 24 h at 4° C. Plates are washed 3× with 100 μL TBS. Kinase reactions are carried out in a total volume of 34 μL in kinase buffer (5 mM Hepes pH 7.6, 15 mM NaCl, 0.01% bovine gamma globulin (Sigma #I-5506), 10 mM MgCl2, 1 mM DTT, 0.02% TritonX-100). Compound dilutions are performed in DMSO and added to assay wells to a final DMSO concentration of 1%. Each data point is measured in duplicate, and at least two duplicate assays are performed for each individual compound determination. Enzyme is added to final concentrations of 10 nM or 20 nM, for example. A mixture of unlabeled ATP and γ-^33P ATP is added to start the reaction (2×10^6 cpm of γ-^33P ATP per well (3000 Ci/mmole) and 10 μM unlabeled ATP, typically. The reactions are carried out for 1 h at room temperature with shaking. Plates are washed 7× with TBS, followed by the addition of 50 μL/well scintillation fluid (Wallac). Plates are read using a Wallac Trilux counter. This is only one format of such assays; various other formats are possible, as known to one skilled in the art.
The above assay procedure can be used to determine the IC50 for inhibition and/or the inhibition constant, Ki. The IC50 is defined as the concentration of compound required to reduce the enzyme activity by 50% under the condition of the assay. The IC50 value is estimated by preparing a 10 point curve using a 1/2 log dilution series (for example, a typical curve may be prepared using the following compound concentrations: 3 μM, 1 μM, 0.3 μM, 0.1 μM, 0.03 μM, 0.01 μM, 0.003 μM, 0.001 μM, 0.0003 μM and 0 μM).
The kinase assays described herein were performed at Millipore UK Ltd, Dundee Technology Park, Dundee DD2 1SW, UK.

[2] = Compound stability in human liver microsomes; type: in vitro ADME; settings: for half-life at 5 μM / T1/2: compound 5 μM, NADPH 1.0 mM, 37° C.
How it was run: as §1

[3] = Pharmacokinetics after intravenous and oral administration in rats; type: in vivo; settings: for Clearance (CL) after iv dosing / AUC(0-t) / half-life / Vd: dose 1 mg/kg (Ex. 27: 0.72 mg/kg), iv dosing; for F: oral bioavailability; for AUC(0-t) / half-life / Vd: rat, plasma; for Vd: read-out: Vss
How it was run: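 Rats were dosed 1 or 2 mg/kg IV or 5 or 10 mg/kg orally, as water solution, HPMC/Tween 80, DMSO/saline, MC suspension or capsule. Plasma was sampled from 0.083 or 0.25 h up to 24 h and quantified by LC/MS/MS in MRM mode with ESI.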

[4] = pH 7.4, Rat liver microsomes 0.5 mg protein/mL, compound 5 μM, NADPH 1.0 mM, 37° C.
[5] = pH 7.4, Rat liver microsomes, in vivo CLint extrapolated
[6] = pH 7.4, Human liver microsomes 0.5 mg protein/mL
[7] = pH 7.4, Human liver microsomes, in vivo CLint extrapolated
[8] = rat, liver microsomes, pH 7.4, Rat liver microsomes 0.5 mg protein/mL, compound 5 μM, NADPH 1.0 mM, 37° C.
[9] = rat, liver microsomes, pH 7.4, Rat liver microsomes, in vivo CLint extrapolated
[10] = human, liver microsomes, pH 7.4, Human liver microsomes 0.5 mg protein/mL
[11] = human, liver microsomes, pH 7.4, Human liver microsomes, in vivo CLint extrapolated
[12] = Human liver microsomes 0.5 mg protein/mL

JAK1 (h), sequence (P23458 whole entry): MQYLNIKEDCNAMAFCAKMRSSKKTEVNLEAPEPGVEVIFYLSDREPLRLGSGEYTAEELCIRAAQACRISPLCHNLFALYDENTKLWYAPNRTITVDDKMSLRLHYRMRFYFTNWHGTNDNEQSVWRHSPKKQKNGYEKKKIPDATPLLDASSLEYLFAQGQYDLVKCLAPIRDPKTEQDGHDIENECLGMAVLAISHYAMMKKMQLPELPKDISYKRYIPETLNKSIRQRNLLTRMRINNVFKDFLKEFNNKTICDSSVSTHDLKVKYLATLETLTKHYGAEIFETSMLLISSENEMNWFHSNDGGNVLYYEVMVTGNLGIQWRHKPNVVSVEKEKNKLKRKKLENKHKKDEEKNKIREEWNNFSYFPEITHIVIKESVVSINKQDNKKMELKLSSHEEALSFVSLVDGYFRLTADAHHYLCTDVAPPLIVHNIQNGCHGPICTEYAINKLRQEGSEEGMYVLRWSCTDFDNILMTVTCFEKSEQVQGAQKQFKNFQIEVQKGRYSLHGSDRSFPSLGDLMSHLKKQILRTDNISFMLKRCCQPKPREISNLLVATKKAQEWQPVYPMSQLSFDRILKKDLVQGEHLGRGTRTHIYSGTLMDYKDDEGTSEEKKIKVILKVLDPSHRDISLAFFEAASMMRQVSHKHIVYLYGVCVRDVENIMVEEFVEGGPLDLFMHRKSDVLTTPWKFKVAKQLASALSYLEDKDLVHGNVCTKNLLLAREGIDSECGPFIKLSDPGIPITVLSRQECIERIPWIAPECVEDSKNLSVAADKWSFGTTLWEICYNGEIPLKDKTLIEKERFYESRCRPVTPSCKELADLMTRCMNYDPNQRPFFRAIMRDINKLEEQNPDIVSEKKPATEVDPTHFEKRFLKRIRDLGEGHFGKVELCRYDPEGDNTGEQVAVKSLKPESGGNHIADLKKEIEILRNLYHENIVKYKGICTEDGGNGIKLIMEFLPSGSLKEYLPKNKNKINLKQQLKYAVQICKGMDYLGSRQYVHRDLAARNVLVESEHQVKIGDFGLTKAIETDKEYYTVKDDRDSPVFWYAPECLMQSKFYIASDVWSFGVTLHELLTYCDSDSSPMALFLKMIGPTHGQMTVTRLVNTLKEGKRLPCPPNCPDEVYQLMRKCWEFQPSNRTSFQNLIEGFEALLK

| Compound | IC50 (JAK1 (h)) | half-life at 5 μM [1, 4] | CLint scaled at 5 μM [1, 5] | IC50 (JAK2 (h)) | half-life at 5 μM [2, 6] | CLint scaled at 5 μM [2, 7] | Clearance (CL) after iv dosing [3] | F [3] | AUC(0-t) [3] | half-life [3] | Vd [3] | half-life at 5 μM [1, 8] | CLint scaled at 5 μM [1, 9] | half-life at 5 μM [2, 10] | CLint scaled at 5 μM [2, 11] | T1/2 ([1]; Rat liver microsomes 0.5 mg protein/mL, compound 5 μM, NADPH 1.0 mM, 37° C.) | CLint ([1]; Rat liver microsomes, in vivo CLint extrapolated) | T1/2 [2, 12] | CLint ([2]; Human liver microsomes, in vivo CLint extrapolated) |
| --- | --- | --- | --- | --- | --- | --- | --- | --- | --- | --- | --- | --- | --- | --- | --- | --- | --- | --- | --- |
| CC(=O)N1CC2CC(Nc3nc(Nc4cnn(C)c4)ncc3Cl)CC2C1 (centres unmarked) [Ex. 32, 1-(5-((5-chloro-2-((1-methyl-1H-pyrazol-4-yl)amino)pyrimidin-4-yl)amino)hexahydrocyclopenta[c]pyrrol-2(1H)-yl)ethanone] | 3 nM | 27.2 min | 91.4 mL/min/kg | 37 nM | 202 min | 8.6 mL/min/kg | 62.8 mL/min/kg | 41.3% | 264 ng·h/mL | 35.4 min | 1.65 L/kg | – | – | – | – | – | – | – | – |
| Cn1cc(Nc2ncc(Cl)c(NC3CCC4(CC3)CCN(C(=O)C(F)(F)F)CC4)n2)cn1 [Ex. 30, 1-(9-((5-chloro-2-((1-methyl-1H-pyrazol-4-yl)amino)pyrimidin-4-yl)amino)-3-azaspiro[5.5]undecan-3-yl)-2,2,2-trifluoroethanone] | 0.9 nM | – | – | 5 nM | – | – | 45.7 mL/min/kg | 26.1% | 370 ng·h/mL | 69 min | 4.77 L/kg | 24.2 min | 103 mL/min/kg | 38 min | 45.7 mL/min/kg | – | – | – | – |
| Cn1cc(Nc2ncc(Cl)c(NC3CCC4(CC3)CCN(C(=O)CC#N)C4)n2)cn1 (single isomer, unassigned) [Ex. 14B, 3-(8-((5-chloro-2-((1-methyl-1H-pyrazol-4-yl)amino)pyrimidin-4-yl)amino)-2-azaspiro[4.5]decan-2-yl)-3-oxopropanenitrile] | 2 nM | – | – | 15 nM | – | – | 86.8 mL/min/kg | 12.7% | 193 ng·h/mL | 29.4 min | 2.41 L/kg | – | – | – | – | 71.63 min | 34.67 mL/min/kg | 171.8 min | 10.12 mL/min/kg |
| Cc1cc(Nc2ncc(Cl)c(NC3CC4CN(C(=O)CC#N)CC4C3)n2)nn1C (centres unmarked) [Ex. 39, 3-(5-((5-chloro-2-((1,5-dimethyl-1H-pyrazol-3-yl)amino)pyrimidin-4-yl)amino)hexahydrocyclopenta[c]pyrrol-2(1H)-yl)-3-oxopropanenitrile] | 5 nM | 36.9 min | 67.3 mL/min/kg | 30 nM | 127 min | 13.7 mL/min/kg | 39.8 mL/min/kg | 83.1% | 422 ng·h/mL | 41.4 min | 1.19 L/kg | – | – | – | – | – | – | – | – |
| Cn1cc(Nc2ncc(Cl)c(NC3CCC4CN(C(=O)CC#N)CC4C3)n2)cn1 (centres unmarked) [Ex. 22, 3-(5-((5-chloro-2-((1-methyl-1H-pyrazol-4-yl)amino)pyrimidin-4-yl)amino)hexahydro-1H-isoindol-2(3H)-yl)-3-oxopropanenitrile] | 2 nM | 12.2 min | 204 mL/min/kg | 6 nM | 158 min | 11 mL/min/kg | 94.8 mL/min/kg | 22.6% | 176 ng·h/mL | 25.8 min | 2.02 L/kg | – | – | – | – | – | – | – | – |
| CN(c1nc(Nc2cnn(C)c2)ncc1Cl)C1CCC2(CC1)CCN(C(=O)CC#N)C2 (single isomer, unassigned) [Ex. 4A, 3-(8-((5-chloro-2-((1-methyl-1H-pyrazol-4-yl)amino)pyrimidin-4-yl)(methyl)amino)-2-azaspiro[4.5]decan-2-yl)-3-oxopropanenitrile] | 20 nM | – | – | 83 nM | – | – | 48.8 mL/min/kg | 21.81% | 345 ng·h/mL | 51.6 min | 1.38 L/kg | 12.4 min | 200 mL/min/kg | 37.3 min | 46.6 mL/min/kg | – | – | – | – |
| Cn1cc(Nc2ncc(Cl)c(NC3CC4CNCC4C3)n2)cn1 (centres unmarked) [Ex. 11, 5-chloro-N^2-(1-methyl-1H-pyrazol-4-yl)-N^4-(octahydrocyclopenta[c]pyrrol-5-yl)pyrimidine-2,4-diamine] | 27 nM | 17.7 min | 140 mL/min/kg | 176 nM | – | – | 105 mL/min/kg | 18.13% | 146 ng·h/mL | 151 min | 18.6 L/kg | – | – | – | – | – | – | ∞ | – |
| Cc1cc(Nc2ncc(Cl)c(NC3CCC4(CC3)CCN(C(=O)CC#N)CC4)n2)nn1C [Ex. 37, 3-(9-((5-chloro-2-((1,5-dimethyl-1H-pyrazol-3-yl)amino)pyrimidin-4-yl)amino)-3-azaspiro[5.5]undecan-3-yl)-3-oxopropanenitrile] | 5 nM | – | – | 11 nM | – | – | 44.3 mL/min/kg | 31.3% | 381 ng·h/mL | 71.4 min | 2.97 L/kg | 68.9 min | 36.1 mL/min/kg | 56.2 min | 30.9 mL/min/kg | – | – | – | – |
| Cn1cc(Nc2ncc(Cl)c(NC3CCC4(CC3)CCN(S(C)(=O)=O)CC4)n2)cn1 [Ex. 29, 5-chloro-N^2-(1-methyl-1H-pyrazol-4-yl)-N^4-(3-(methylsulfonyl)-3-azaspiro[5.5]undecan-9-yl)pyrimidine-2,4-diamine] | 2 nM | – | – | 5 nM | – | – | 45.7 mL/min/kg | 19.1% | 382 ng·h/mL | 49.2 min | 2.05 L/kg | 40.3 min | 61.6 mL/min/kg | 83.8 min | 20.8 mL/min/kg | – | – | – | – |
